Data from patent US11254668B2, “Pyrazolo[1,5-A]pyrazin-4-yl and related derivatives” (Pfizer Inc., priority 2017, dated 2022).

What was measured:
Format in all cases: biochemical
[1] = target: JAK2 (Homo sapiens (Human), UniProt O60674); assay: JAK Caliper Enzyme Assay at 1 mM ATP, JAK2
Description: Compounds of the invention were evaluated by in vitro methods to determine their respective ability to inhibit the JAK kinases (TYK2, JAK1, JAK2, JAK3).
The human JAK inhibitory activity was determined by using a microfluidic assay to monitor phosphorylation of a synthetic peptide by the recombinant human kinase domain of each of the four members of the JAK family, JAK1, JAK2, JAK3 and TYK2. […] Each assay condition was optimized for enzyme concentration and room temperature incubation time to obtain a conversion rate of 20% to 30% phosphorylated peptide product. Reactions were terminated by the addition of stop buffer containing EDTA. Utilizing the LabChip 3000 mobility shift technology (Caliper Life Science), each assay reaction was sampled to determine the level of phosphorylation. This technology is separation-based, allowing direct detection of fluorescently labeled substrates and products. Separations are controlled by a combination of vacuum pressure and electric field strength optimized for each peptide substrate.
JAK Caliper Enzyme Assay at 1mM ATP
Compounds were added to a 384-well plate.
The data was collected using the HTS Well Analyzer software from Caliper Life Sciences. The data output for data analysis is the percent product converted calculated on peak height (Equation 1). % product converted=100*((product)/(product+substrate)) Equation 1: […]
The percent effect at each compound concentration was calculated based on the positive and negative control well contained within each assay plate (Equation 2). […] The negative control wells contained DMSO alone (at the same concentration as the compound wells) that was used to set the baseline activity in the assay (i.e., uninhibited JAK1, JAK2, JAK3 or TYK2). % effect=100*([…](positive control-negative control)) Equation 2: […]
The percent effect was plotted against the compound concentration compound.

[2] = target: JAK3 (Homo sapiens (Human), UniProt P52333); assay: JAK Caliper Enzyme Assay at 1 mM ATP, JAK3
Procedure, shortened: (§1)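 Recombinant human kinase domains phosphorylated a fluorescent synthetic peptide at room temperature, with enzyme level and time tuned to 20% to 30% conversion; EDTA stop buffer ended reactions. Mobility-shift separation gave percent product from peak heights, normalised to DMSO and positive controls, and IC50s came from concentration–effect curves.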

[3] = target: TYK2 (Homo sapiens (Human), UniProt P29597); assay: JAK Caliper Enzyme Assay at 1 mM ATP, TYK2
Procedure, shortened: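 First, compound was incubated at room temperature with recombinant human kinase domain, a synthetic peptide and 1 mM ATP until 20–30% of peptide was phosphorylated. Next, EDTA stopped the reaction. Finally, electrophoretic separation quantified product, and percent effect relative to controls was plotted against concentration.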

[4] = target: JAK1 (Homo sapiens (Human), UniProt P23458); assay: JAK Caliper Enzyme Assay at 1 mM ATP, JAK1
Procedure, shortened: as §1

Sequence of JAK3 (P52333 822-1111): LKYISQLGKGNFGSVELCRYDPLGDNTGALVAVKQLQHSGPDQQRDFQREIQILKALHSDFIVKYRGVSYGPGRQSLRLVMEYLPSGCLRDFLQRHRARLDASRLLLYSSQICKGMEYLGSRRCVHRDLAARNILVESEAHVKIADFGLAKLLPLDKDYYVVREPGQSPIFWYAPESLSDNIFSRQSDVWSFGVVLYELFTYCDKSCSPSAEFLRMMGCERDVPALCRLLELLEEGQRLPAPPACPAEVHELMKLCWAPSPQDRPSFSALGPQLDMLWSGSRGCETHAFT
Sequence of JAK2 (O60674 849-1124): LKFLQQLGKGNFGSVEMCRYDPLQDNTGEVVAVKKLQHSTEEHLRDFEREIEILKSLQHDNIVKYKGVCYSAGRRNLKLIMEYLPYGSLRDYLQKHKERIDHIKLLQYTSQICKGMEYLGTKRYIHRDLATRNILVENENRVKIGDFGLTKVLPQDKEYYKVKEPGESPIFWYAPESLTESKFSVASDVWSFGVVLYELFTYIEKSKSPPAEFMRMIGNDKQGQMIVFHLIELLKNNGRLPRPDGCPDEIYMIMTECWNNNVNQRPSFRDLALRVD
Sequence of JAK1 (P23458 875-1153): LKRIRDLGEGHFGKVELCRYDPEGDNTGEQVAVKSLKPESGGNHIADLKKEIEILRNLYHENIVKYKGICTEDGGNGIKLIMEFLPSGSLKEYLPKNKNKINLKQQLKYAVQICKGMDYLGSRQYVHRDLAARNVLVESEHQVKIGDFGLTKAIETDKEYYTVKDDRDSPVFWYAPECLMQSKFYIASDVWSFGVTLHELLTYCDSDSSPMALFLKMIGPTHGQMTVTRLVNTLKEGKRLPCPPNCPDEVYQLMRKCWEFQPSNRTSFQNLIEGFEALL
Sequence of TYK2 (P29597 897-1176): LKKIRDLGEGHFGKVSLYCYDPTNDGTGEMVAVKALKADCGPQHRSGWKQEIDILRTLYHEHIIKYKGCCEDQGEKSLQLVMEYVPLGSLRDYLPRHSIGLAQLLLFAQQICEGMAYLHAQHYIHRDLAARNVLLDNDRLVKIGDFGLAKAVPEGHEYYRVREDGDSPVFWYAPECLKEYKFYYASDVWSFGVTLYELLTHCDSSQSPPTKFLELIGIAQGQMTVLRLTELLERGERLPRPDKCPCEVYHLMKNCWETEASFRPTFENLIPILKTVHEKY

IC50 [1] [nM] | IC50 [2] [nM] | IC50 [3] [nM] | IC50 [4] [nM] | Compound
3430 | > 10000 | 730 | 5830 | CC(=O)NC1CC(CC#N)(n2ccc(-c3nc(-c4cc[nH]n4)cc4ncccc34)n2)C1 (stereo not drawn) [Example 32, N-[trans-3-(cyanomethyl)-3-{3-[7-(1H-pyrazol-3-yl)-1,6-naphthyridin-5-yl]-pyrazol-1-yl}cyclobutyl]acetamide]
339 | > 10000 | 44 | 569 | C[C@]1(C#N)C[C@@](CC#N)(n2ccc(-c3nc(-c4cc[nH]n4)cc4ncccc34)n2)C1 [Example 35, cis-3-(cyanomethyl)-1-methyl-3-{3-[7-(1H-pyrazol-3-yl)-1,6-naphthyridin-5-yl]-1H-pyrazol-1-yl}cyclobutanecarbonitrile]
5740 | > 10000 | 1060 | 7100 | C[C@]1(C#N)C[C@](CC#N)(n2ccc(-c3nc(-c4cc[nH]n4)cc4ncccc34)n2)C1 [Example 36, trans-3-(cyanomethyl)-1-methyl-3-{3-[7-(1H-pyrazol-3-yl)-1,6-naphthyridin-5-yl]-1H-pyrazol-1-yl}cyclobutanecarbonitrile]
2830 | > 10000 | 369 | 4280 | N#CCC1(n2ccc(-c3nc(-c4cc[nH]n4)cc4ncccc34)n2)CC2(COC2)C1 [Example 37, (6-{3-[7-(1H-pyrazol-3-yl)-1,6-naphthyridin-5-yl]-1H-pyrazol-1-yl}-2-oxaspiro[3.3]hept-6-yl)acetonitrile]
5630 | > 10000 | 4020 | > 10000 | CC(=O)N1CC2(C1)CC(CC#N)(n1ccc(-c3nc(-c4cc[nH]n4)cc4ncccc34)n1)C2 [Example 38, (2-acetyl-6-{3-[7-(1H-pyrazol-3-yl)-1,6-naphthyridin-5-yl]-1H-pyrazol-1-yl}-2-azaspiro[3.3]hept-6-yl)acetonitrile]
2080 | > 10000 | 205 | 2770 | CC(C)(O)[C@H]1C[C@](CC#N)(n2ccc(-c3nc(-c4cc[nH]n4)cc4ncccc34)n2)C1 [Example 39, [trans-3-(2-hydroxypropan-2-yl)-1-{3-[7-(1H-pyrazol-3-yl)-1,6-naphthyridin-5-yl]-1H-pyrazol-1-yl}cyclobutyl]acetonitrile]
4590 | > 10000 | 730 | 7300 | CC(C)(O)[C@H]1C[C@@](CC#N)(n2ccc(-c3nc(-c4cc[nH]n4)cc4ncccc34)n2)C1 [Example 40, [cis-3-(2-hydroxpropan-2-yl)-1-{3-[7-(1H-pyrazol-3-yl)-1,6-naphthyridin-5-yl]-1H-pyrazol-1-yl}cyclobutyl]acetonitrile]
125 | > 10000 | 33 | 739 | Cc1cc(-c2cc3ncccc3c(-c3ccn([C@]4(CC#N)C[C@](C)(C#N)C4)n3)n2)n[nH]1 [Example 45, cis-3-(cyanomethyl)-1-methyl-3-{3-[7-(5-methyl-1H-pyrazol-3-yl)-1,6-naphthyridin-5-yl]-1H-pyrazol-1-yl}cyclobutanecarbonitrile]
2770 | > 10000 | 867 | 9680 | Cc1cc(-c2cc3ncccc3c(-c3ccn([C@]4(CC#N)C[C@@](C)(C#N)C4)n3)n2)n[nH]1 [Example 46, trans-3-(cyanomethyl)-1-methyl-3-{3-[7-(5-methyl-1H-pyrazol-3-yl)-1,6-naphthyridin-5-yl]-1H-pyrazol-1-yl}cyclobutanecarbonitrile]
1940 | > 10000 | 254 | 7720 | CCN1CC(CC#N)(n2ccc(-c3nc(-c4cc(CO)[nH]n4)cc4ncccc34)n2)C1 [Example 47, [1-ethyl-3-(3-{7-[5-(hydroxymethyl)-1H-pyrazol-3-yl]-1,6-naphthyridin-5-yl}-1H-pyrazol-1-yl)azetidin-3-yl]acetonitrile]
235 | > 10000 | 19 | 379 | CO[C@H]1C[C@@](CC#N)(n2ccc(-c3nc(-c4cc(N)[nH]n4)cc4ncccc34)n2)C1 [Example 52, (cis-1-{3-[7-(5-amino-1H-pyrazol-3-yl)-1,6-naphthyridin-5-yl]-1H-pyrazol-1-yl}-3-methoxycyclobutyl)acetonitrile]
396 | > 10000 | 26 | 654 | CO[C@H]1C[C@](CC#N)(n2ccc(-c3nc(-c4cc(N)[nH]n4)cc4ncccc34)n2)C1 [Example 53, (trans-1-{3-[7-(5-amino-1H-pyrazol-3-yl)-1,6-naphthyridin-5-yl]-1H-pyrazol-1-yl}-3-methoxycyclobutyl)acetonitrile]

The remaining lines, values behind:

Compound | IC50 [1] [nM] | IC50 [2] [nM] | IC50 [3] [nM] | IC50 [4] [nM]
N#CCC1(n2ccc(-c3nc(-c4ccn[nH]4)cc4ncccc34)n2)CC(CO)C1 (stereo not drawn) [Example 29, [cis-3-(hydroxymethyl)-1-{3-[7-(1H-pyrazol-5-yl)-1,6-naphthyridin-5-yl]-1H-pyrazol-1-yl}cyclobutyl]acetonitrile] | 2340 | > 10000 | 437 | 3800
CO[C@H]1C[C@](CC#N)(n2ccc(-c3nc(-c4ccn[nH]4)cc4ncccc34)n2)C1 [Example 30, (trans-3-methoxy-1-{3-[7-(1H-pyrazol-5-yl)-1,6-naphthyridin-5-yl]-1H-pyrazol-1-yl}cyclobutyl)acetonitrile] | 1770 | > 10000 | 75 | 1960
CO[C@H]1C[C@@](CC#N)(n2ccc(-c3nc(-c4ccn[nH]4)cc4ncccc34)n2)C1 [Example 31, (cis-3-methoxy-1-{3-[7-(1H-pyrazol-5-yl)-1,6-naphthyridin-5-yl]-1H-pyrazol-1-yl}cyclobutyl)acetonitrile] | 955 | > 10000 | 53 | 1800
Cc1cc(-c2cc3ncccc3c(-c3ccn([C@]4(CC#N)C[C@@H](C#N)C4)n3)n2)n[nH]1 [Example 43, trans-3-(cyanomethyl)-3-{3-[7-(5-methyl-1H-pyrazol-3-yl)-1,6-naphthyridin-5-yl]-1H-pyrazol-1-yl}cyclobutanecarbonitrile] | 91 | > 10000 | 14 | 502
Cc1cc(-c2cc3ncccc3c(-c3ccn([C@]4(CC#N)C[C@H](C#N)C4)n3)n2)n[nH]1 [Example 44, cis-3-(cyanomethyl)-3-{3-[7-(5-methyl-1H-pyrazol-3-yl)-1,6-naphthyridin-5-yl]-1H-pyrazol-1-yl}cyclobutanecarbonitrile] | 18 | 2880 | 7 | 66
N#CCC1(n2ccc(-c3nc(-c4cc(CO)[nH]n4)cc4ncccc34)n2)CC(C#N)C1 (stereo not drawn) [Example 48, trans-3-(cyanomethyl)-3-(3-{7-[5-(hydroxymethyl)-1H-pyrazol-3-yl]-1,6-naphthyridin-5-yl}-1H-pyrazol-1-yl)cyclobutanecarbonitrile] | 73 | > 10000 | 15 | 292
N#CC[C@]1(n2ccc(-c3nc(-c4cc(CO)[nH]n4)cc4ncccc34)n2)C[C@@H](C#N)C1 [Example 49, cis-3-(cyanomethyl)-3-(3-{7-[5-(hydroxymethyl)-1H-pyrazol-3-yl]-1,6-naphthyridin-5-yl}-1H-pyrazol-1-yl)cyclobutanecarbonitrile] | 16 | 2320 | 7 | 42
CO[C@H]1C[C@](CC#N)(n2ccc(-c3nc(-c4cc(CO)n[nH]4)cc4ncccc34)n2)C1 [Example 50, [trans-1-(3-{7-[3-(hydroxymethyl)-1H-pyrazol-5-yl]-1,6-naphthyridin-5-yl}-1H-pyrazol-1-yl)-3-methoxycyclobutyl]acetonitrile] | 861 | > 10000 | 59 | 2750
CO[C@H]1C[C@@](CC#N)(n2ccc(-c3nc(-c4cc(CO)n[nH]4)cc4ncccc34)n2)C1 [Example 51, [cis-1-(3-{7-[3-(hydroxymethyl)-1H-pyrazol-5-yl]-1,6-naphthyridin-5-yl}-1H-pyrazol-1-yl)-3-methoxycyclobutyl]acetonitrile] | 509 | > 10000 | 45 | 1910
